Test system: HEK293T cells
Assay: Flow cytometry (CFlow): delivery of FAM-labeled single-stranded PGY-sRNA-6 into HEK293T cells by different concentrations of single sphingosine derivative (Example 1)
Assay type: cell-based, human
Details: for delivery of single-stranded PGY-sRNA-6 into 293T cells (fluorescence shift compared to free uptake group): different concentrations: 3.75, 12.5, 37.5 μg single lipid, 0.1 nmol FAM-labeled sRNA, final 100 nM, 9 hours, flow cytometry; for Lipid delivery group (different concentrations of lipids) 3.75 μg/mL: single sphingosine derivative 3.75 μg/mL; for Lipid delivery group (different concentrations of lipids) 3.75 μg/mL / Lipid delivery group (different concentrations of lipids) 12.5 μg/mL / Lipid delivery group (different concentrations of lipids) 37.5 μg/mL: FAM-labeled PGY-ssRNA-6 100 nM, 293T cells, fluorescence shift by flow cytometry; for Lipid delivery group (different concentrations of lipids) 12.5 μg/mL: single sphingosine derivative 12.5 μg/mL; for Lipid delivery group (different concentrations of lipids) 37.5 μg/mL: single sphingosine derivative 37.5 μg/mL
Method: 2.1 5 μl of small RNA (Ribobio, 20 μM, as shown in Table 2) and 95 μL of DEPC (Sigma) treated water were added into a 1.5 ml EP tube and mixed well. Then a certain amount of single lipid or lipid composition in chloroform solution (as shown in Table 1) was added and fully mixed by sucking and blowing;
2.2 The system was fully mixed and was heated in a water bath at 90° C. for 15 minutes;
2.3 The system was taken out and cooled down to room temperature.
4.3 The human embryonic kidney cell line HEK293T and human monocyte THP-1 cells used in the experiment were cultured to logarithmic growth phase, and then plated into 12-well plates with a cell density of 6×10^5/1 mL medium/well. The 12-well plate (1 mL medium/well) was incubated overnight (12 h) at 37° C., followed by subsequent experiments.
4.4 The experiment groups were as follows: • 1) Naïve group: untreated cells. This group served as a blank control group. • 2) Free uptake group: […] of 5′-FAM labeled small RNA solution (storage concentration is 20 μM) was directly added. This group served as a negative control group; • 3) Lipid nucleic acid mixture treatment group: The mixture of the lipid prepared in step 2 and the 5′-FAM-labeled small RNA was added into the cells and mixed well. The final concentration of small RNA is 100 nM.
4.5 After co-incubation with cells for 6 h/9 h, the cells were washed three times with PBS. The cells were re-suspended with PBS (self-prepared). The flow cytometer Accuri® C6 instrument (purchased from BD, US) was used to detect the fluorescence intensity of the cells in the sample wells. Implementation method: the software CFlow Plus used in the flow cytometer Accuri® C6 instrument detection was opened, the instrument was washed with cleaning solution for 3 minutes, and then washed with double-distilled water for 5 minutes. The injection of blank group samples was started while setting the number of cells unlimited. The injection of Naïve group samples was stopped when the number of cells detected was 10000 events. The live cell group in the fluorescence spectrum (abscissa: FSC-A, ordinate: SSC-A) was circled as gate P1. With the number of cells set as limited, the detection was stopped when the number of cells in gate P1 reached 10000 events. The fluorescence shift value was obtained in the fluorescence spectrum (abscissa: fluorescence channel FLA-1, ordinate: SSC-A).
1) Conditions of the boiling method: to 100 μL FAM-labeled single-stranded PGY-sRNA-6 solution was added corresponding amount of lipid solution, and heated at 90° C. for 15 min;
2) Experimental conditions: the final concentration of small RNA was 100 nM. 9 hours after being added to the cells, the amount of single-stranded PGY-sRNA-6 that entered into the cells was compared by detecting the fluorescence shift using flow cytometry technology. For the detailed protocols, see “Flow cytometry technology (CFlow) determined the uptake amount of nucleic acid that is delivered into cells by lipid”. All experiments were performed in triplicates.

SMILES | delivery of single-stranded PGY-sRNA-6 into 293T cells (fluorescence shift compared to free uptake group) | Lipid delivery group (different concentrations of lipids) 3.75 μg/mL [%] | Lipid delivery group (different concentrations of lipids) 12.5 μg/mL [%] | Lipid delivery group (different concentrations of lipids) 37.5 μg/mL [%]
CCCCCCCCCCCCCCC[C@@H](O)[C@H](CO)N(C)C [So-11, N,N-dimethyl-D-erythro-Dihydrosphingosine] | deliver | 3.60 | 7.40 | 12.70
CCCCCCCCCCCCC/C=C/[C@H](O)[C@H](N)CO [So-70, (2R,3S,4E)-2-amino-4-octadecene-1,3-diol] | deliver | 4.70 | 10.10 | 11.40
CCCCCCCCCCCCC/C=C/[C@@H](O)[C@H](CO)NC(=O)CCCCCCCCCCCCCC [So-64, N-[(1S,2R,3E)-2-hydroxy-1-(hydroxymethyl)-3-heptadecen-1-yl]-pentadecanamide] | deliver | 7.40 | 6.20 | 8.70
CCCCCCCCCCCCCC=CC(O)C(COP(=O)(O)OCCN)NC(C)=O (stereo not drawn) [So-60, N-Acetyl-Sphingosylphosphorylethanolamine] | deliver | 7.10 | 7.10 | 6.20
CCCCCCCCCCCCC/C=C/[C@@H](O)[C@@H](N)CO[C@@H]1OC(CO)[C@@H](O)C(O)C1O (stereo partly drawn) [So-66, D-glucosyl-β1-1′-D-erythro-sphingosine] | deliver | 7.10 | 18.10 | 29.50
CCCCCCCCCCCCCCCC(=O)N[C@@H](CO)[C@H](O)[C@H](O)CCCCCCCCCCCCCC [So-68, N-[(1S,2S,3R)-2,3-dihydroxy-1-(hydroxymethyl)heptadecyl]-hexadecanamide] | deliver | 4.80 | 3.80 | 3.90
CCCCCCCCCCCCC/C=C/[C@@H](O)[C@H](CO)NC(=O)CCCCCCCCCCC [So-62, N-[(1S,2R,3E)-2-hydroxy-1-(hydroxymethyl)-3-heptadecen-1-yl]-dodecanamide] | deliver | 6.60 | 6.50 | 7.10
CCCCCCCCCCCCC/C=C/[C@@H](O)[C@@H](N)CO[C@@H]1O[C@H](CO)[C@@H](O)[C@H](O)[C@H]1O [So-49, 1-β-D-Glucosylsphingosine (synthetic)] | deliver | 0.50 | 1.70 | 7.40
CCCCCCCCCCCCCCCC(=O)C(N)CO.Cl (stereo not drawn) [So-8, 3-keto Dihydrosphingosine] | deliver | 3.60 | 4.50 | 1.90
CCCCCCCCCCCCC/C=C/[C@@H](O)[C@@H](N)CO [So-26, D-erythro-Sphingosine C-18] | deliver | 0.20 | 3.80 | 0.50
CCCCCCCCCCCCCCC[C@H](O)[C@H](N)CO [So-46, C18 L-erythro Sphinganine (d18:0)] | deliver | 0.20 | 0.30 | 6.90
CCCCCCCCCCCCCCC[C@@H](O)[C@@H](N)CO (stereo in doubt) [So-71, (2S,3R)-2-amino-1,3-Octadecanediol] | deliver | 3.60 | 6.20 | 8.80
CCCCCCCCCC(=O)C(N)CO.Cl (stereo not drawn) [So-72, 2-amino-1-hydroxy-3-dodecanone, monohydrochloride] | deliver | 2.40 | 3.40 | 14.10
CCCCCCCCCCCCC/C=C/[C@@H](O)[C@H](CO)N(C)C [So-4, N,N-Dimethylsphingosine (d18:1)] | deliver | 1.70 | 2.20 | 0.00
CCCCCCCCCCCCCCCCC(=O)N[C@@H](CO)[C@H](O)CCCCCCCCCCCCCCC [So-1, N-heptadecanoyl-D-erythro-Dihydrosphingosine] | deliver | 1.60 | 1.50 | 1.40
